Experiments:
NB12 = assay: cells; type: functional, cell-based; details: Homo sapiens;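 further: growth inhibition of human NB12 cells, read out by a cell viability assay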
Description: SANGER: Inhibition of human NB12 cell growth in a cell viability assay.

SIMA = assay: cells; type: functional, cell-based, Homo sapiens; details: Homo sapiens, SIMA;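 further: growth inhibition of SIMA cells, measured with a cell viability readout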
Description: SANGER: Inhibition of human SIMA cell growth in a cell viability assay.

SW1783 = assay: cells; type: functional, cell-based; details: Homo sapiens
Description: SANGER: Inhibition of human SW1783 cell growth in a cell viability assay.

NCI-H2452 = assay: cells; type: functional, cell-based; details: Homo sapiens;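 further: growth inhibition of NCI-H2452 cells, read out with a cell viability assay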
Description: SANGER: Inhibition of human NCI-H2452 cell growth in a cell viability assay.

SCLC-21H = assay: cells; type: functional, cell-based, Homo sapiens; details: Homo sapiens, SCLC-21H;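 further: growth inhibition of cultured human SCLC-21H cells, read out with a cell viability assay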
Description: SANGER: Inhibition of human SCLC-21H cell growth in a cell viability assay.

A-427 = assay: cells; type: functional, cell-based; details: Homo sapiens;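 further: growth inhibition of human A-427 cells, read out by a cell viability assay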
Description: SANGER: Inhibition of human A427 cell growth in a cell viability assay.

ESS-1 = assay: cells; type: functional, cell-based; details: Homo sapiens;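 further: growth inhibition of human ESS-1 cells, read out by a cell viability assay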
Description: SANGER: Inhibition of human ESS-1 cell growth in a cell viability assay.

CHP-126 = assay: cells; type: functional, cell-based, Homo sapiens; details: Homo sapiens, CHP-126
Description: SANGER: Inhibition of human CHP-126 cell growth in a cell viability assay.

MKN-45 = assay: cells; type: functional, cell-based; details: Homo sapiens;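 further: growth inhibition of human MKN-45 cells, measured with a cell viability assay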
Description: SANGER: Inhibition of human MKN45 cell growth in a cell viability assay.

BXPC-3 = assay: cells; type: functional, cell-based; details: Homo sapiens;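 further: growth inhibition of human BxPC-3 cells, read out by a cell viability assay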
Description: SANGER: Inhibition of human BxPC-3 cell growth in a cell viability assay.

HT-1376 = assay: cells; type: functional, cell-based; details: Homo sapiens
Description: SANGER: Inhibition of human HT-1376 cell growth in a cell viability assay.

SKG-IIIa = assay: cells; type: functional, cell-based; details: Homo sapiens;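 further: cell growth inhibition, read out with a cell viability assay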
Description: SANGER: Inhibition of human SKG-IIIa cell growth in a cell viability assay.

NCI-H1792 = assay: cells; type: functional, cell-based; details: Homo sapiens;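 further: growth inhibition of human NCI-H1792 cells, read out as cell viability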
Description: SANGER: Inhibition of human NCI-H1792 cell growth in a cell viability assay.

G-402 = assay: cells; type: functional, cell-based; details: Homo sapiens
Description: SANGER: Inhibition of human G-402 cell growth in a cell viability assay.

SK-LU-1 = assay: cells; type: functional, cell-based; details: Homo sapiens;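 further: cell viability assay measuring growth inhibition of human SK-LU-1 cells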
Description: SANGER: Inhibition of human SK-LU-1 cell growth in a cell viability assay.

KYSE-450 = assay: cells; type: functional, cell-based; details: Homo sapiens;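 further: cell growth inhibition measured by a viability assay in human KYSE-450 cells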
Description: SANGER: Inhibition of human KYSE-450 cell growth in a cell viability assay.

HMV-2 cell line = assay: cells; type: functional, cell-based; details: Homo sapiens;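 further: growth inhibition of HMV-II cells, read out with a cell viability assay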
Description: SANGER: Inhibition of human HMV-II cell growth in a cell viability assay.

SiHa = assay: cells; type: functional, cell-based; details: Homo sapiens;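 further: Viability-based readout of growth inhibition in SiHa cells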
Description: SANGER: Inhibition of human SiHa cell growth in a cell viability assay.

T84 = assay: cells; type: functional, cell-based; details: Homo sapiens;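 further: growth inhibition measured with a cell viability readout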
Description: SANGER: Inhibition of human T84 cell growth in a cell viability assay.

GP5d = assay: cells; type: functional, cell-based; details: Homo sapiens;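 further: growth inhibition of human GP5d cells, read out with a cell viability assay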
Description: SANGER: Inhibition of human GP5d cell growth in a cell viability assay.

RCM-1 = assay: cells; type: functional, cell-based; details: Homo sapiens;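 further: growth inhibition of the RCM-1 line, determined with a cell viability readout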
Description: SANGER: Inhibition of human RCM-1 cell growth in a cell viability assay.

EVSA-T = assay: cells; type: functional, cell-based, Homo sapiens; details: Homo sapiens, EVSA-T;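 further: growth inhibition of EVSA-T cells, read out with a cell viability assay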
Description: SANGER: Inhibition of human EVSA-T cell growth in a cell viability assay.

M14 = assay: cells; type: functional, cell-based; details: Homo sapiens;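 further: growth inhibition of M14 cells, read out with a cell viability assay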
Description: SANGER: Inhibition of human M14 cell growth in a cell viability assay.

D-542MG = assay: cells; type: functional, cell-based; details: Homo sapiens
Description: SANGER: Inhibition of human D-542MG cell growth in a cell viability assay.

T98G = assay: cells; type: functional, cell-based; details: Homo sapiens;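 further: growth inhibition of T98G cells, read out by a cell viability assay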
Description: SANGER: Inhibition of human T98G cell growth in a cell viability assay.

HPAF-II = assay: cells; type: functional, cell-based; details: Homo sapiens;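 further: growth inhibition of HPAF-II cells, read out with a cell viability assay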
Description: SANGER: Inhibition of human HPAF-II cell growth in a cell viability assay.

NCI-H1755 = assay: cells; type: functional, cell-based; details: Homo sapiens;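 further: cell viability readout used to measure growth inhibition of NCI-H1755 cells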
Description: SANGER: Inhibition of human NCI-H1755 cell growth in a cell viability assay.

SCC-9 = assay: cells; type: functional, cell-based; details: Homo sapiens;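 further: Read-out is a cell viability assay, with values giving inhibition of cell growth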
Description: SANGER: Inhibition of human SCC-9 cell growth in a cell viability assay.

U2OS = assay: cells; type: functional, cell-based, U-2-OS; details: Homo sapiens;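 further: growth inhibition of human U-2-OS cells, determined with a cell viability assay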
Description: SANGER: Inhibition of human U-2-OS cell growth in a cell viability assay.

TE-15 = assay: cells; type: functional, cell-based, Homo sapiens; details: Homo sapiens, TE-15;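 further: cell viability readout of growth inhibition in TE-15 cells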
Description: SANGER: Inhibition of human TE-15 cell growth in a cell viability assay.

H4 = assay: cells; type: functional, cell-based; details: Homo sapiens
Description: SANGER: Inhibition of human H4 cell growth in a cell viability assay.

CAPAN-1 = assay: cells; type: functional, cell-based; details: Homo sapiens;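 further: growth suppression of CAPAN-1 cells, read out by a cell viability assay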
Description: SANGER: Inhibition of human CAPAN-1 cell growth in a cell viability assay.

L-540 = assay: cells; type: functional, cell-based, Homo sapiens; details: Homo sapiens, L-540;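 further: growth inhibition of the human L-540 cell line, read out with a viability assay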
Description: SANGER: Inhibition of human L-540 cell growth in a cell viability assay.

REH = assay: cells; type: functional, cell-based, Homo sapiens; details: Homo sapiens, REH;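 further: growth inhibition of REH cells determined with a cell viability read-out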
Description: SANGER: Inhibition of human REH cell growth in a cell viability assay.

TUR = assay: cells; type: functional, cell-based, Homo sapiens; details: Homo sapiens, TUR;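 further: growth inhibition of human TUR cells, read out with a cell viability assay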
Description: SANGER: Inhibition of human TUR cell growth in a cell viability assay.

HO-1-N-1 = assay: cells; type: functional, cell-based; details: Homo sapiens;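 further: growth inhibition of human HO-1-N-1 cells, read out with a cell viability assay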
Description: SANGER: Inhibition of human HO-1-N-1 cell growth in a cell viability assay.

Huh-7 = assay: cells; type: functional, cell-based; details: Homo sapiens;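 further: HuH-7 cell growth inhibition, read out with a cell viability assay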
Description: SANGER: Inhibition of human HuH-7 cell growth in a cell viability assay.

NCI-H1651 = assay: cells; type: functional, cell-based; details: Homo sapiens;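 further: Read-out is a cell viability assay, with IC50 expressing inhibition of NCI-H1651 cell growth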
Description: SANGER: Inhibition of human NCI-H1651 cell growth in a cell viability assay.

NCI-H2087 = assay: cells; type: functional, cell-based; details: Homo sapiens;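 further: growth inhibition determined with a cell viability readout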
Description: SANGER: Inhibition of human NCI-H2087 cell growth in a cell viability assay.

LU-99A = assay: cells; type: functional, cell-based; details: Homo sapiens;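 further: growth inhibition of LU-99A cells, read out with a cell viability assay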
Description: SANGER: Inhibition of human LU-99A cell growth in a cell viability assay.

BEN = assay: cells; type: functional, cell-based; details: Homo sapiens;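 further: growth inhibition of the BEN cell line, read out with a cell viability assay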
Description: SANGER: Inhibition of human BEN cell growth in a cell viability assay.

ChaGo-K-1 = assay: cells; type: functional, cell-based; details: Homo sapiens;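 further: growth inhibition of ChaGo-K-1 cells, read out with a cell viability assay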
Description: SANGER: Inhibition of human ChaGo-K-1 cell growth in a cell viability assay.

NCI-H28 = assay: cells; type: functional, cell-based; details: Homo sapiens;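 further: growth inhibition of human NCI-H28 cells, read out as cell viability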
Description: SANGER: Inhibition of human NCI-H28 cell growth in a cell viability assay.

NCI-H2141 = assay: cells; type: functional, cell-based, Homo sapiens; details: Homo sapiens, NCI-H2141;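 further: growth inhibition of human NCI-H2141 cells, read out with a cell viability assay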
Description: SANGER: Inhibition of human NCI-H2141 cell growth in a cell viability assay.

SK-MEL-28 = assay: cells; type: functional, cell-based; details: Homo sapiens;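 further: growth inhibition of human SK-MEL-28 cells, read out with a cell viability assay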
Description: SANGER: Inhibition of human SK-MEL-28 cell growth in a cell viability assay.

MFE-280 = assay: cells; type: functional, cell-based; details: Homo sapiens;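 further: growth inhibition of MFE-280 cells, determined with a cell viability readout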
Description: SANGER: Inhibition of human MFE-280 cell growth in a cell viability assay.

CAL-33 = assay: cells; type: functional, cell-based; details: Homo sapiens;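 further: growth inhibition of CAL-33 cells, read out with a cell viability assay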
Description: SANGER: Inhibition of human CAL-33 cell growth in a cell viability assay.

NCI-H1437 = assay: cells; type: functional, cell-based; details: Homo sapiens;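 further: growth inhibition of human NCI-H1437 cells, read out by a cell viability assay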
Description: SANGER: Inhibition of human NCI-H1437 cell growth in a cell viability assay.

HCT-116 = assay: cells; type: functional, cell-based; details: Homo sapiens
Description: SANGER: Inhibition of human HCT-116 cell growth in a cell viability assay.

NCI-H2171 = assay: cells; type: functional, cell-based, Homo sapiens; details: Homo sapiens, NCI-H2171;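 further: growth inhibition of human NCI-H2171 cells, read out by a cell viability assay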
Description: SANGER: Inhibition of human NCI-H2171 cell growth in a cell viability assay.

SK-MES-1 = assay: cells; type: functional, cell-based; details: Homo sapiens;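 further: growth inhibition of human SK-MES-1 cells, read out with a cell viability assay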
Description: SANGER: Inhibition of human SK-MES-1 cell growth in a cell viability assay.

NCI-H661 = assay: cells; type: functional, cell-based; details: Homo sapiens;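 further: cell viability assay read-out, IC50 being the concentration that inhibits growth of the cells by half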
Description: SANGER: Inhibition of human NCI-H661 cell growth in a cell viability assay.

HGC-27 = assay: cells; type: functional, cell-based; details: Homo sapiens;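 further: growth inhibition of human HGC-27 cells, read out in a cell viability assay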
Description: SANGER: Inhibition of human HGC-27 cell growth in a cell viability assay.

NCCIT = assay: SANGER: Inhibition of human NCCIT cell growth in a cell viability assay.; type: functional, cell-based; details: Homo sapiens, NCCIT
SIG-M5 = assay: cells; type: functional, cell-based, Homo sapiens; details: Homo sapiens, SIG-M5;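 further: cell viability assay read-out, measuring how strongly growth of cultured human SIG-M5 cells is inhibited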
Description: SANGER: Inhibition of human SIG-M5 cell growth in a cell viability assay.

NCI-H2122 = assay: cells; type: functional, cell-based; details: Homo sapiens
Description: SANGER: Inhibition of human NCI-H2122 cell growth in a cell viability assay.

GCT = assay: cells; type: functional, cell-based; details: Homo sapiens
Description: SANGER: Inhibition of human GCT cell growth in a cell viability assay.

KYSE-520 cell line = assay: cells; type: functional, cell-based; details: Homo sapiens
Description: SANGER: Inhibition of human KYSE-520 cell growth in a cell viability assay.

HSC-2 = assay: cells; type: functional, cell-based; details: Homo sapiens
Description: SANGER: Inhibition of human HSC-2 cell growth in a cell viability assay.

NCI-H460 = assay: cells; type: functional, cell-based; details: Homo sapiens
Description: SANGER: Inhibition of human NCI-H460 cell growth in a cell viability assay.

PF-382 = assay: cells; type: functional, cell-based, Homo sapiens; details: Homo sapiens, PF-382
Description: SANGER: Inhibition of human PF-382 cell growth in a cell viability assay.

SMILES: CCCCCCCCCCCC1=C(O)C(=O)C=C(O)C1=O [EMBELIN]
- IC50 (NB12): 8230 nM
- IC50 (SIMA): 6370 nM
- IC50 (SW1783): 10100 nM
- IC50 (NCI-H2452): > 32000 nM
- IC50 (SCLC-21H): > 32000 nM
- IC50 (A-427): > 32000 nM
- IC50 (ESS-1): 9420 nM
- IC50 (CHP-126): > 32000 nM
- IC50 (MKN-45): 7980 nM
- IC50 (BXPC-3): 6410 nM
- IC50 (HT-1376): 5900 nM
- IC50 (SKG-IIIa): > 32000 nM
- IC50 (NCI-H1792): 23100 nM
- IC50 (G-402): 11300 nM
- IC50 (SK-LU-1): 7210 nM
- IC50 (KYSE-450): 17700 nM
- IC50 (HMV-2 cell line): 4610 nM
- IC50 (SiHa): > 32000 nM
- IC50 (T84): 9870 nM
- IC50 (GP5d): 8600 nM
- IC50 (RCM-1): 22400 nM
- IC50 (EVSA-T): > 32000 nM
- IC50 (M14): 11000 nM
- IC50 (D-542MG): 3130 nM
- IC50 (T98G): 19600 nM
- IC50 (HPAF-II): 25400 nM
- IC50 (NCI-H1755): > 32000 nM
- IC50 (SCC-9): > 32000 nM
- IC50 (U2OS): > 32000 nM
- IC50 (TE-15): 7240 nM
- IC50 (H4): 4130 nM
- IC50 (CAPAN-1): 9010 nM
- IC50 (L-540): 8420 nM
- IC50 (REH): 8620 nM
- IC50 (TUR): > 32000 nM
- IC50 (HO-1-N-1): 12300 nM
- IC50 (Huh-7): > 32000 nM
- IC50 (NCI-H1651): 5980 nM
- IC50 (NCI-H2087): 5450 nM
- IC50 (LU-99A): > 32000 nM
- IC50 (BEN): > 32000 nM
- IC50 (ChaGo-K-1): 7080 nM
- IC50 (NCI-H28): 26000 nM
- IC50 (NCI-H2141): 26800 nM
- IC50 (SK-MEL-28): 8480 nM
- IC50 (MFE-280): 15700 nM
- IC50 (CAL-33): 22900 nM
- IC50 (NCI-H1437): 6270 nM
- IC50 (HCT-116): 28500 nM
- IC50 (NCI-H2171): > 32000 nM
- IC50 (SK-MES-1): 5010 nM
- IC50 (NCI-H661): 19200 nM
- IC50 (HGC-27): 7950 nM
- IC50 (NCCIT): 19200 nM
- IC50 (SIG-M5): 1310 nM
- IC50 (NCI-H2122): 2810 nM
- IC50 (GCT): > 32000 nM
- IC50 (KYSE-520 cell line): 18500 nM
- IC50 (HSC-2): 7400 nM
- IC50 (NCI-H460): 6090 nM
- IC50 (PF-382): 6170 nM

SMILES: C/C(=C\c1csc(C)n1)[C@@H]1C[C@@H]2O[C@]2(C)CCC[C@H](C)[C@H](O)[C@@H](C)C(=O)C(C)(C)[C@@H](O)CC(=O)O1 [PATUPILONE]
- IC50 (NB12): > 32 nM
- IC50 (SIMA): 19.1 nM
- IC50 (SW1783): 1.48 nM
- IC50 (NCI-H2452): > 32 nM
- IC50 (SCLC-21H): 7.59 nM
- IC50 (A-427): 0.828 nM
- IC50 (ESS-1): 1.52 nM
- IC50 (CHP-126): > 32 nM
- IC50 (MKN-45): 4.38 nM
- IC50 (BXPC-3): 1.74 nM
- IC50 (HT-1376): 21.2 nM
- IC50 (SKG-IIIa): > 32 nM
- IC50 (NCI-H1792): 8.28 nM
- IC50 (G-402): 5.27 nM
- IC50 (SK-LU-1): 0.866 nM
- IC50 (KYSE-450): 0.267 nM
- IC50 (HMV-2 cell line): 0.394 nM
- IC50 (SiHa): > 32 nM
- IC50 (T84): 0.24 nM
- IC50 (GP5d): 3.09 nM
- IC50 (RCM-1): 15.2 nM
- IC50 (EVSA-T): 30.7 nM
- IC50 (M14): > 32 nM
- IC50 (D-542MG): > 32 nM
- IC50 (T98G): 20 nM
- IC50 (HPAF-II): 21 nM
- IC50 (NCI-H1755): > 32 nM
- IC50 (SCC-9): > 32 nM
- IC50 (U2OS): > 32 nM
- IC50 (TE-15): 0.225 nM
- IC50 (H4): 0.975 nM
- IC50 (CAPAN-1): 4 nM
- IC50 (L-540): 10.7 nM
- IC50 (REH): 1.76 nM
- IC50 (TUR): 1.86 nM
- IC50 (HO-1-N-1): 1.66 nM
- IC50 (Huh-7): 7.11 nM
- IC50 (NCI-H1651): 3.71 nM
- IC50 (NCI-H2087): 3.11 nM
- IC50 (LU-99A): 5.33 nM
- IC50 (BEN): 20.6 nM
- IC50 (ChaGo-K-1): 9.61 nM
- IC50 (NCI-H28): 22 nM
- IC50 (NCI-H2141): 13.7 nM
- IC50 (SK-MEL-28): > 32 nM
- IC50 (MFE-280): > 32 nM
- IC50 (CAL-33): 1.52 nM
- IC50 (NCI-H1437): 0.689 nM
- IC50 (HCT-116): 4.69 nM
- IC50 (NCI-H2171): 9.62 nM
- IC50 (SK-MES-1): 1.24 nM
- IC50 (NCI-H661): 30.1 nM
- IC50 (HGC-27): 0.338 nM
- IC50 (NCCIT): 1.73 nM
- IC50 (SIG-M5): 0.169 nM
- IC50 (NCI-H2122): 0.41 nM
- IC50 (GCT): 6.61 nM
- IC50 (KYSE-520 cell line): 10.4 nM
- IC50 (HSC-2): 0.363 nM
- IC50 (NCI-H460): 0.333 nM
- IC50 (PF-382): 8.68 nM
